From ChEMBL document CHEMBL1921798, “Discovery of a potent, selective, and orally available class I phosphatidylinositol 3-kinase (PI3K)/mammalian target of rapamycin (mTOR) kinase inhibitor (GDC-0980) for the treatment of cancer” (J Med Chem, 2011) come the findings set out here.

In general, IC50 refers to the midpoint of a concentration-inhibition curve. Broadly, the Ki is the equilibrium dissociation constant of an inhibitor or competing ligand from its target. Broadly, the clearance is the rate of elimination divided by the concentration. A lower clearance goes with inefficient removal. Usually solubility (thermodynamic) stands for the concentration in solution at equilibrium with solid. A word on the logD: it is the decadic logarithm of the distribution of all forms, ionised or not, between an organic phase and buffer at a given pH. A high value points to higher lipophilicity. One may read the fraction unbound as free concentration divided by total concentration. Lower therefore signals little free substance. As usually defined, the bioavailability is dose-corrected exposure relative to a reference, in per cent. Low readings indicate little systemic uptake, high ones much systemic uptake.

In series [1] the target is T1, Phosphatidylinositol 4,5-bisphosphate 3-kinase catalytic subunit delta isoform (Homo sapiens, UniProt O00329).
T1 sequence (O00329 whole entry): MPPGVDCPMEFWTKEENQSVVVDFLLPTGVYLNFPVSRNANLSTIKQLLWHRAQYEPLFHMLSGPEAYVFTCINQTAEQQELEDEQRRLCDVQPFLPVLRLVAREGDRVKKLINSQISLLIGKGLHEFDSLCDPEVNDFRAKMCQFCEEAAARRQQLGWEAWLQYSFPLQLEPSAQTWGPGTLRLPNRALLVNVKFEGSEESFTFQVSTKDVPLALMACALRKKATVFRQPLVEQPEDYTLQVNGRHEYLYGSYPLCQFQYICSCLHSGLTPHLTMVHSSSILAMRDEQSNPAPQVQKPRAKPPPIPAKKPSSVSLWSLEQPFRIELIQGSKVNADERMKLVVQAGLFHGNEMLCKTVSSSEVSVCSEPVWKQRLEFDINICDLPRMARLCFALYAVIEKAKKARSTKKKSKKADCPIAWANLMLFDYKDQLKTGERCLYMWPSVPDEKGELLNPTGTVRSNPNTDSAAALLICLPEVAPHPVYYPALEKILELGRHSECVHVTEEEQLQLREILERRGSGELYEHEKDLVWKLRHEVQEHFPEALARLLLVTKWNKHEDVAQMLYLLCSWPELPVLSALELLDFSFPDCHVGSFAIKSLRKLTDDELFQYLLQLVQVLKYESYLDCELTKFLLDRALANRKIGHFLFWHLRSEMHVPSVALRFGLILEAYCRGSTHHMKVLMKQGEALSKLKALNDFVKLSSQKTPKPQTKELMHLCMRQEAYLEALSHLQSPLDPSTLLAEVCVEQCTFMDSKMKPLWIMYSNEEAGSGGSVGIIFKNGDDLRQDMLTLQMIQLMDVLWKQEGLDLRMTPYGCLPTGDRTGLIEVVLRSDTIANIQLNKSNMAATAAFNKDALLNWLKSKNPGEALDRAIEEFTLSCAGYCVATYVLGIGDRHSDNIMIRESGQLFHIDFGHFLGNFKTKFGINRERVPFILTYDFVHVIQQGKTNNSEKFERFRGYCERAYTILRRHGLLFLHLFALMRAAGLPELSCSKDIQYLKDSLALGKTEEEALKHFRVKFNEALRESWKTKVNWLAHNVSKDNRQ

Series [2] has as its target Phosphatidylinositol 4,5-bisphosphate 3-kinase catalytic subunit gamma isoform (Homo sapiens, UniProt P48736).
The target of series [3] is Serine/threonine-protein kinase mTOR (Homo sapiens, UniProt P42345).
Description: Inhibition of human recombinant mTOR expressed in insect cells assessed as phosphorylation of recombinant (GFP)-4-EBP1 measured after 30 mins by fluorescence polarization assay
For series [4], the target named is Phosphatidylinositol 4,5-bisphosphate 3-kinase catalytic subunit beta isoform (Homo sapiens, UniProt P42338).
Sequence of Phosphatidylinositol 4,5-bisphosphate 3-kinase catalytic subunit beta isoform (P42338 whole entry, canonical isoform): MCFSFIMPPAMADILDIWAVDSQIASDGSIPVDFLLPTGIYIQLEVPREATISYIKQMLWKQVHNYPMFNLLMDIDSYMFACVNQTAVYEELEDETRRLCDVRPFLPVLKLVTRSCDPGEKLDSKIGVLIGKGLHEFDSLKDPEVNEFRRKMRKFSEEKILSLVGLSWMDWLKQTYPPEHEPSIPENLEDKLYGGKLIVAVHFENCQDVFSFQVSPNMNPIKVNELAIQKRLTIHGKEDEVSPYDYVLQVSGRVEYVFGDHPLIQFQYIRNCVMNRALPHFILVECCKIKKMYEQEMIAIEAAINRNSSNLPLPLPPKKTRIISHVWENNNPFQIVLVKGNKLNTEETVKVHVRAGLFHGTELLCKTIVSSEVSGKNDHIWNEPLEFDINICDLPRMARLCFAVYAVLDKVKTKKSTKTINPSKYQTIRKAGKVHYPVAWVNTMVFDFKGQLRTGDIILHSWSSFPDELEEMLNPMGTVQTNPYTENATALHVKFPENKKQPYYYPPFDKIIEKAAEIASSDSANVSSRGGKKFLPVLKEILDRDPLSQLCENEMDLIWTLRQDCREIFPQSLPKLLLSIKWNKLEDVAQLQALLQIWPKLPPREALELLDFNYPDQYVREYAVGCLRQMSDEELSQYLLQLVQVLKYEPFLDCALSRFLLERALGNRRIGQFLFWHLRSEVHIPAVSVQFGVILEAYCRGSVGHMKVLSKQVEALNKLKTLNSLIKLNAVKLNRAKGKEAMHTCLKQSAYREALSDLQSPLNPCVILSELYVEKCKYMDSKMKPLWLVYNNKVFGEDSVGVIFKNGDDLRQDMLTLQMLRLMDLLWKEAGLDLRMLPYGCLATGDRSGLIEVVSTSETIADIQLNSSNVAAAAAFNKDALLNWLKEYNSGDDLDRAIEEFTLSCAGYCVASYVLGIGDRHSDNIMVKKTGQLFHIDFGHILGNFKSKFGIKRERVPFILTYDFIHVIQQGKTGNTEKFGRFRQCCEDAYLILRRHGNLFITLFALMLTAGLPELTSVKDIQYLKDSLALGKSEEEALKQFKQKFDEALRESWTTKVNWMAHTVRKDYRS
Description: Inhibition of PI3K subunit p110beta assessed as formation of phosphatidylinositide-3-phosphate product formation after 30 mins by fluorescence polarization assay
Series [5] can be described thus: in vivo. The following applies: beagle, dog, plasma, iv, 1 mg/kg.
Series [6] is described as follows: physchem. The following applies: buffer, pH 6.5.
Description: Thermodynamic solubility of the compound at pH 6.5
Series [7] is described as follows: in vivo. The following applies: Sprague-Dawley, rat, plasma, iv, 1 mg/kg.
A short description of series [8]: physchem. The following applies: octanol/water.
Description: Lipophilicity, log D of the compound
A short description of the next series: in vitro. The following applies: human, plasma.
A short description of series [9]: in vivo. The following applies: Sprague-Dawley, rat, po, 1 mg/kg.
Series [10] concerns the target Phosphatidylinositol 4,5-bisphosphate 3-kinase catalytic subunit alpha isoform (Homo sapiens, UniProt P42336).
Description: Inhibition of PI3K subunit p110alpha assessed as formation of phosphatidylinositide-3-phosphate product formation after 30 mins by fluorescence polarization assay

Values after ≈ are worked out from the molar mass of the structure shown.

Sequence of Phosphatidylinositol 4,5-bisphosphate 3-kinase catalytic subunit gamma isoform (P48736 whole entry, canonical isoform): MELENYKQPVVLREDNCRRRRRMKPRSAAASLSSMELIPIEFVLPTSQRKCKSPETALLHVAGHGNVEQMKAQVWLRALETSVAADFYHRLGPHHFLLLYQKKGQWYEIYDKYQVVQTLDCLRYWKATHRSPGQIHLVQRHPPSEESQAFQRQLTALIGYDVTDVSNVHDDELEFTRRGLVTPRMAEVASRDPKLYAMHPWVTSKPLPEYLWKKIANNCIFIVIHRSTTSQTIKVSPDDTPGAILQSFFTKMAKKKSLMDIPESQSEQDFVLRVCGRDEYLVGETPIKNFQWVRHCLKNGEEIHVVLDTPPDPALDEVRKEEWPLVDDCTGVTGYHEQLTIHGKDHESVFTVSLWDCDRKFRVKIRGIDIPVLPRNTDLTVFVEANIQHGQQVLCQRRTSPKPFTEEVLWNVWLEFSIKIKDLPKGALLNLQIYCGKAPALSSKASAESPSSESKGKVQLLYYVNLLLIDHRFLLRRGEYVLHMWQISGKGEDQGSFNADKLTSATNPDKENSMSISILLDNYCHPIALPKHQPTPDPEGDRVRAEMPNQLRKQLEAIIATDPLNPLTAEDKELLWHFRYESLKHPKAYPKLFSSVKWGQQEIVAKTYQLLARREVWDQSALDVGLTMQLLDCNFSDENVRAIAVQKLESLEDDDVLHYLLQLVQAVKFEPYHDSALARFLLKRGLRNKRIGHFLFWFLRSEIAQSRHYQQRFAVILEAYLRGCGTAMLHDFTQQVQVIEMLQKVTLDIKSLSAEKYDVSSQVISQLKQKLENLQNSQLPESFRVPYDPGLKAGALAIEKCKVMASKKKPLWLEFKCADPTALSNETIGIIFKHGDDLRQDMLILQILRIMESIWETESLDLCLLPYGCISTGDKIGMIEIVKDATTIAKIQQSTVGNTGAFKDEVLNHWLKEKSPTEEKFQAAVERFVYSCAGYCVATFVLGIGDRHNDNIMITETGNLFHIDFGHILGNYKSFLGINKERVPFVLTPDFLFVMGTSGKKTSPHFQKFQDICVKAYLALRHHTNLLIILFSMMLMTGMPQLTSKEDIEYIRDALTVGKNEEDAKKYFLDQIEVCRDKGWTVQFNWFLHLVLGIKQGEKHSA
Sequence of Phosphatidylinositol 4,5-bisphosphate 3-kinase catalytic subunit alpha isoform (P42336 whole entry, canonical isoform): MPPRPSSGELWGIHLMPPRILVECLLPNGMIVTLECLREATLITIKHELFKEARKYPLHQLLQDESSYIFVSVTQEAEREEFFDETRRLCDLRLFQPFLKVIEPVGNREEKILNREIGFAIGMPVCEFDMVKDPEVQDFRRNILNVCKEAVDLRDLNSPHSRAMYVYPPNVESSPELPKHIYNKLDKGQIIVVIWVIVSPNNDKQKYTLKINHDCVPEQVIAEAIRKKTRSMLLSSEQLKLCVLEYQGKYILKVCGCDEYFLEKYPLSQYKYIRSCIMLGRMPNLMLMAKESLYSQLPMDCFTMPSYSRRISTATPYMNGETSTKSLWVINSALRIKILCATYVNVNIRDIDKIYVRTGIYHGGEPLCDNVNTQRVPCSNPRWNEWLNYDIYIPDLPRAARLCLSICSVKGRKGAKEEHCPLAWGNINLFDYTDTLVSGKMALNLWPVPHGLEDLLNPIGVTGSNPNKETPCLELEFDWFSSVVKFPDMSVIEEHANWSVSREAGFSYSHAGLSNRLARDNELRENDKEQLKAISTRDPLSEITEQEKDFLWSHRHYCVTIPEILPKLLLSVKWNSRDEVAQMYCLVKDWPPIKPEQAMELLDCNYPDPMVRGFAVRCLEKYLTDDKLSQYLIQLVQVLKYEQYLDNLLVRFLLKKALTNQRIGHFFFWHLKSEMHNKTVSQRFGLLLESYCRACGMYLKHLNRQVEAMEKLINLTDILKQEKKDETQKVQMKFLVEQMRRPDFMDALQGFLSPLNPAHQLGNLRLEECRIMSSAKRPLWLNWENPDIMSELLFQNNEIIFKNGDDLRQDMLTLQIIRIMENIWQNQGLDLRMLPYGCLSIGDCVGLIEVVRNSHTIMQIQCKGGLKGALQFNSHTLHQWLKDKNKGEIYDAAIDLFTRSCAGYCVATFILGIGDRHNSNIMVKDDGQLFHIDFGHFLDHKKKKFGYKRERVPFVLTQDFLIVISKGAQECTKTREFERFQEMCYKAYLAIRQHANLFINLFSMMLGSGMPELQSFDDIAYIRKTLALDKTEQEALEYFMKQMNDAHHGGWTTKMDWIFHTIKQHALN
Description for in vitro: Plasma protein binding in human

For `Cc1c(CN2CCN(C(=O)[C@H](C)N)CC2)sc2c(N3CCOCC3)nc(-c3cnc(N)nc3)nc12`, the values for the IC50 in series [1], in series [2] and in series [4] were 2.4 nM, 37 nM and 29 nM, respectively. The compound also had a Ki in series [3] of 6.3 nM.

In the case of `CS(=O)(=O)N1CCN(Cc2cc3nc(-c4cnc(N)nc4)nc(N4CCOCC4)c3s2)CC1.Cl`, the clearance in “in vivo [5]” came to 22 mL/min/kg.

The compound `Cc1c(CN2CCN(S(C)(=O)=O)CC2)sc2c(N3CCOCC3)nc(-c3cnc(N)nc3)nc12.Cl` gave a clearance in “in vivo [5]” of 5 mL/min/kg.

Regarding `Cc1c(CN2CCN(C(=O)C(C)(C)O)CC2)sc2c(N3CCOCC3)nc(-c3cnc(N)nc3)nc12`, the 50% inhibitory concentration (IC50) in [1] is 5 nM; in series [2], 25 nM; in series [4], 45 nM. The Ki in series [3] was determined as 14 nM. In “physchem [6]”, the thermodynamic solubility was 600 µg/mL (≈ 1170 µM).

As for `Cc1c(CN2CCN(S(C)(=O)=O)CC2)sc2c(N3CCOCC3)nc(-c3cnc(N)nc3)nc12.O=C(O)C(F)(F)F`, the clearance in the series “in vivo [7]” was 13 mL/min/kg.

Turning to `CS(=O)(=O)N1CCN(Cc2cc3nc(-c4cnc(N)nc4)nc(N4CCOCC4)c3s2)CC1`, in the series “physchem [8]”, the logD was determined as 1.3. Besides, in the series “in vitro”, the free fraction (fraction unbound) is 0.49. This compound also returned a solubility (thermodynamic) in the series “physchem [6]” of 24 µg/mL (≈ 48.9 µM).

`CS(=O)(=O)N1CCN(Cc2cc3nc(-c4cnc(N)nc4)nc(N4CCOCC4)c3s2)CC1.O=C(O)C(F)(F)F` came in with a clearance in the series “in vivo [7]” of 24 mL/min/kg.

For `Cc1c(CN2CCN(C(=O)C(C)(C)N)CC2)sc2c(N3CCOCC3)nc(-c3cnc(N)nc3)nc12`, the IC50 amounted to 1.5 nM in series [1], 20 nM in [2] and 44 nM in series [4]. This compound yielded a Ki in series [3] of 14 nM. In the series “physchem [6]”, this compound had a thermodynamic solubility of 1000 µg/mL (≈ 1950 µM).

`Cc1c(CN2CCN(C(=O)C(C)(C)O)CC2)sc2c(N3CCOCC3)nc(-c3cnc(N)nc3)nc12.O=C(O)C(F)(F)F` showed a clearance in “in vivo [7]” of 24 mL/min/kg. The compound also came in with a bioavailability in the series “in vivo [9]” of 71%.

`Cc1c(CN2CCN(C(=O)CN)CC2)sc2c(N3CCOCC3)nc(-c3cnc(N)nc3)nc12.O=C(O)C(F)(F)F`: the clearance in “in vivo [7]” is 140 mL/min/kg. The bioavailability in the series “in vivo [9]” was determined as 0%.

In “in vitro”, `Cc1c(CN2CCN(S(C)(=O)=O)CC2)sc2c(N3CCOCC3)nc(-c3cnc(N)nc3)nc12` showed a fraction unbound of 0.23. Moreover, the solubility (thermodynamic) in the series “physchem [6]” worked out at 9 µg/mL (≈ 17.8 µM).

Turning to `Cc1c(CN2CCN(C(=O)C(C)(C)N)CC2)sc2c(N3CCOCC3)nc(-c3cnc(N)nc3)nc12.O=C(O)C(F)(F)F`, the clearance in “in vivo [7]” came out at 84 mL/min/kg. In “in vivo [9]”, this compound yielded a bioavailability of 6%.

Consider `Cc1c(CN2CCN(C(=O)CN)CC2)sc2c(N3CCOCC3)nc(-c3cnc(N)nc3)nc12`, for which the IC50 stood at 4.3 nM in series [1], 17 nM in [2], 0.7 nM in [10] and 11 nM in series [4]. Also, the Ki in [3] was 12 nM. In addition, the solubility (thermodynamic) in “physchem [6]” is 690 µg/mL (≈ 1430 µM).

As for `Cc1c(CN2CCN(C(=O)CO)CC2)sc2c(N3CCOCC3)nc(-c3cnc(N)nc3)nc12`, the IC50 in [1] came out at 5.6 nM; in series [2], 10 nM; in series [4], 19 nM. In [10], this compound registered a Ki of 2.8 nM.
